From patent US6831100B2, “Menthyl benzoate formulations for external UV protection” (priority 2000, dated 2004)

Assays:
[1] = test system: Escherichia coli wild type strain CA 8000; assay: UV protection assay for bacteria cultivated in presence of the compounds; type: cell-based; settings: for Titre estimated (cfu), Initial: bacteria grown in presence of compound, before UV exposure, control 3.73 × 10^7; for Killing % in comparison to the control: bacteria grown with compound, UV exposed
Excerpt: (§1) UV light is not only harmful to humans but also to all other biological systems including microorganisms. The majority of the studies of the effect of UV light on microbes and its modes of action have shown the formation of thymidine dimers, which cause mutations and excessive exposure thus leads to death of the bacteria. […] Therefore, the assays involving the screening of potential UV protectant compounds against bacterial system exposure in presence and absence of test compound is easy, less time consuming and environmentally safe. We carried out simple experiments involving the bacterium Escherichia coli (Wild type) (Kumar, 5. 1976. Journal of Bacteriology, 125: 545-555) as the test system. Escherichia coli is a Gram negative bacterium and sensitive to ultraviolet light. The bacterial cells were grown in broth cultures were exposed to UV light for different time periods and the survival in terms of colony forming units was determined to estimate the killing percentage. The experiments comprised of a series of different steps in two distinct manners/routes (Example 1 and 2 below). In these examples, various quantities were mentioned are not confined to the said limits but can be variable depending upon the need and scale of experiment or screen to be employed. Two different approaches as described below were followed. In one case, the bacterial cells were grown in presence of the test compound and then exposed to UV while, in other case the bacteria were exposed to the two wavelength of UV light filtered through a UV transparent film coated with the compound and using uncoated film as control.
UV Protection Assays for the Bacteria Cultivated in Presence of the Compounds
Step A: Growing bacterial cultures: The wild type strain CA 8000 of Escherichia coli was in the assays. A single colony was inoculated in 5 ml Luria broth and incubated at 37° C. temperature for 16 hour in a water bath shaker. Bacteria were grown in presence of test compounds with plain LB as growth medium.
Step B: Determining killing percentage of bacteria in relation to UV exposure time: This was done in the following steps.
a. The broth culture was diluted to 10 times in sterile water.
b. About 0.3 ml of the diluted bacterial suspension was transferred to the petriplates forming a thin layer at the bottom (in replicates).
c. In the dark room a UV source was placed at least 10 cm above the plates (This distance may vary depending upon the need of the experiment)
d. The cfu (colony forming unit) count was determined by serially diluting the exposed and control bacteria and plating on the Luria agar plate followed by counting the viable units of the bacteria forming colonies upon incubation at 37° C. overnight.
These two exposure levels were used further in our experiment to test the efficacy of different compounds for UV protection.
Step C: The bacterial cultures were grown in presence of different concentrations of the test compounds, exposed in the same way as in step B and viable cfu count was determined.

[2] = test system: Escherichia coli wild type strain CA 8000; assay: UV protection assay through compound-coated UV transparent film; type: cell-based; settings: for Protection (%) / Titre after UV exposure, film coated with menthyl benzoate / Killing (%), film coated with menthyl benzoate: film coated 50 μg per ml, 312 nm; for Titre after UV exposure, film coated with menthyl benzoate: initial titre 2.490 × 10^8
Excerpt: as §1
Exposure of the Bacteria to UV Light Through a UV Transparent Film Coated with the Compound
Step A: Growing bacterial cultures: The wild type strain, CA 8000 of Escherichia coli was used in the assays. A single colony was inoculated in 5 ml Luria broth and incubated at 37° C. temperature for 16 hour in a water bath shaker. Bacteria were grown in presence of test compounds with plain LB as growth medium.
Step B: The bacterial culture was harvested by centrifugation and pellet was suspended in equal amount of sterile distilled water. The bacterial pellet was harvested by centrifuging at 5000 RPM for 10 minute and suspended in 25 ml sterile distilled water.
Step C: About 0.3 ml of the broth culture of the bacteria was transferred to petriplates forming a thin layer at the bottom (in replicates). At least 5 replicates per treatment were used along with control plates containing bacteria.
Step D: The plates were covered with UV transparent film, which was coated with different concentrations of the test compounds.
Step E: In the dark room a UV source was placed at least 10 cm above the plates (which may vary depending upon the experiment). In this invention, the UV torch emitting two-fixed wavelength (312 nm and 365 nm) was used.
Step F: Light source was switched-on for different time intervals for the predetermined lethality levels based on the killing curve of control bacteria determined by UV exposure through uncoated film.
Step G: The viable cfu (colony forming unit) count was determined by serially diluting the exposed and control bacteria and then plating on the Luria agar plates followed by counting the viable units of the bacteria forming colonies (Table 1).

[3] = 120 seconds UV exposure (LD70), control 1.119 × 10^7
[4] = 120 seconds UV exposure, control 70.00%
[5] = 150 seconds UV exposure (LD80), control 0.746 × 10^7
[6] = 150 seconds UV exposure, control 80.00%
[7] = UV exposure equivalent to lethality level 10%
[8] = UV exposure equivalent to lethality level 25%
[9] = UV exposure equivalent to lethality level 50%

SMILES | Titre estimated (cfu), final after UV exposure [1, 3] | Killing (%) after UV exposure [1, 4] | Titre estimated (cfu), final after UV exposure [1, 5] | Killing (%) after UV exposure [1, 6] | Titre estimated (cfu), Initial [1] | Killing % in comparison to the control [1] | UV protection in comparison to other known UV protectants ([1]; 50 μg/ml in culture) | Protection efficiency, comparison between compounds ([1]; descending series of the three compounds) | Safety to the bacterial system: titre (cfu) when bacteria are grown in presence of the compound ([1]; treated versus untreated cultures, no UV) | Protection (%) [2, 7] | Titre after UV exposure, film coated with menthyl benzoate [2, 7] | Killing (%), film coated with menthyl benzoate ([2]; UV exposure equivalent to lethality level 10%, uncoated film 10.04%) | Protection (%) [2, 8] | Titre after UV exposure, film coated with menthyl benzoate [2, 8] | Killing (%), film coated with menthyl benzoate ([2]; UV exposure equivalent to lethality level 25%, uncoated film 25.02%) | Protection (%) [2, 9] | Titre after UV exposure, film coated with menthyl benzoate [2, 9] | Killing (%), film coated with menthyl benzoate ([2]; UV exposure equivalent to lethality level 50%, uncoated film 50.12%) | Effect on percentage of lethality of the bacteria ([2]; at all levels of lethality tested) | Most optimum concentration coated on the film for UV protection ([2]; out of all concentrations coated on the film, higher concentration does not substantially increase protection)
O=C(CC(=O)c1ccccc1)c1ccccc1 [Dibenzoyl methane] | 1.162 × 10^7 cfu | 68.85% | 1.050 × 10^7 cfu | 71.85% | 3.73 × 10^7 cfu | much less in comparison to the control |  |  |  |  |  |  |  |  |  |  |  |  |  | 
O=C(OCc1ccccc1)c1ccccc1 [Benzyl benzoate, Benzyl Benzoate] | 1.460 × 10^7 cfu | 60.86% | 1.240 × 10^7 cfu | 66.75% | 3.73 × 10^7 cfu | much less in comparison to the control |  |  |  |  |  |  |  |  |  |  |  |  |  | 
CC1CCC(C(C)C)C(OC(=O)c2ccccc2)C1 (stereo not shown) [Menthyl benzoate, Menthyl Benzoate] | 1.660 × 10^7 cfu | 55.49% | 1.300 × 10^7 cfu | 65.15% | 3.73 × 10^7 cfu |  | significant protection | better protectant than the commercially used dibenzoyl methane | no decrease of titre was observed | 70.01% | 2.415 × 10^8 cfu per ml | 3.01% | 24.58% | 2.020 × 10^8 cfu per ml | 18.87% | 12.67% | 1.400 × 10^8 cfu per ml | 43.77% | reduced the percentage of lethality of the bacteria | 50 μg per ml
